Test results reported in ChEMBL document CHEMBL4043196, “Efficient synthesis of the GABAA receptor agonist trans-4-aminocrotonic acid (TACA)” (Bioorg Med Chem Lett, 2017).
Calls of active or inactive are those of the source. The rule behind the calls is not given here.

Columns and labels:
Haemonchus contortus = assay: Agonist activity at Heaemonchus contortus UNC-49B/C GABAA receptor expressed in Xenopus laevis oocytes at 500 uM by two-electrode voltage-clamp method; format: cell-based
[1] = Agonist activity at Heaemonchus contortus UNC-49B/C GABAA receptor expressed in Xenopus laevis oocytes by two-electrode voltage-clamp method; format: cell-based; conditions: Haemonchus contortus

EC50 [1] [µM]	Compound	Activity (Haemonchus contortus)
–	NCC(Br)CC(=O)O (stereo not drawn)	inactive
290	NC/C=C/C(=O)O [t-4-AMINOCROTONIC ACID (TACA)]	–
–	NCC(Cl)CC(=O)O (stereo not drawn)	inactive
